Assay results reported in ChEMBL document CHEMBL2021792, “Tetrahydro-naphthols as orally available TRPV1 inhibitors” (Bioorg Med Chem Lett, 2012).

What was measured:
[1] = target: Transient receptor potential cation channel subfamily V member 1 (Homo sapiens, UniProt Q8NER1); test: Antagonist activity at human TRPV1 expressed in CHOluc9aeq cells assessed as inhibition of capsaicin-stimulated response by aequorin and CRE-lucifearase reporter gene assay; format: functional, cell-based
[2] = AUC in rat at 1 mg/kg, po; format: ADME, organism-based; set-up: dose 1 mg/kg, route oral; settings: plasma
Plasma = test: Unbound fraction in rat plasma; format: ADME, cell-free
[3] = Oral bioavailability in rat at 1 mg/kg; format: ADME, organism-based; settings: in vivo

Chain of Transient receptor potential cation channel subfamily V member 1 (Q8NER1 whole entry): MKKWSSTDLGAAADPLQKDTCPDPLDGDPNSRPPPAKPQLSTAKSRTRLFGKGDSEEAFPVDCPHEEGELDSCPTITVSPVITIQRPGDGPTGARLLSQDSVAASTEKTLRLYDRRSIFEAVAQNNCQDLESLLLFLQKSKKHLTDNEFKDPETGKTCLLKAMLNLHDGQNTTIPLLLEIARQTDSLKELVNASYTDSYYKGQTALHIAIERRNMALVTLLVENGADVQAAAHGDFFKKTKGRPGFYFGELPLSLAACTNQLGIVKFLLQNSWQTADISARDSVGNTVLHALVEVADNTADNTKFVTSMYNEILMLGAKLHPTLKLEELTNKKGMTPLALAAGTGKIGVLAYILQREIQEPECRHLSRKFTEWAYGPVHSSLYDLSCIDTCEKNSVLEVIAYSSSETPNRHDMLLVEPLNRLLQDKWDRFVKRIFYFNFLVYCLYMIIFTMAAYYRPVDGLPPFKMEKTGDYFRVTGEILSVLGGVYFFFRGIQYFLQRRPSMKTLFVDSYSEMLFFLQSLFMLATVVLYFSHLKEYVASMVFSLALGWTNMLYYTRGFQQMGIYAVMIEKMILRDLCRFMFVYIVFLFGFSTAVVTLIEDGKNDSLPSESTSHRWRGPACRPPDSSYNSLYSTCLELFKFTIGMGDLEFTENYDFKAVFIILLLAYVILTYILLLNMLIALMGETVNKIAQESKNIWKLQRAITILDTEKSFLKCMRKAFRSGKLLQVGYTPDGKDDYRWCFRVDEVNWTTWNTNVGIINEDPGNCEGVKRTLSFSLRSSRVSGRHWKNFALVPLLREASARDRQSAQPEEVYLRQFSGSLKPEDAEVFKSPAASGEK

Row | SMILES | IC50 [1] [nM] | AUC [2] [ng·h/mL] | other results
1 | Nc1cc2c(NC(=O)Nc3ccc(Cl)c(C(F)(F)F)c3)cccc2cc1Cl | > 1000 | – | –
2 | CC(=O)Nc1ccc2cccc(NC(=O)Nc3ccc(Cl)c(C(F)(F)F)c3)c2c1 | 530 | 1590 | –
3 | CS(=O)(=O)Nc1ccc2cccc(NC(=O)Nc3ccc(Cl)c(C(F)(F)F)c3)c2c1 | > 1000 | 709 | –
4 | NS(=O)(=O)c1ccc2cccc(NC(=O)Nc3ccc(Cl)c(C(F)(F)F)c3)c2c1 | 710 | – | –
5 | NS(=O)(=O)Cc1ccccc1NC(=O)Nc1ccc(Cl)c(C(F)(F)F)c1 | 460 | – | –
6 | NS(=O)(=O)c1ccccc1NC(=O)Nc1ccc(Cl)c(C(F)(F)F)c1 | > 1000 | – | –
7 | O=C(Nc1ccc(Cl)c(C(F)(F)F)c1)Nc1cccc2nn[nH]c12 | 180 | – | –
8 | O=C(Nc1ccc(Cl)c(C(F)(F)F)c1)Nc1ccccc1CCCO | 220 | – | –
9 | O=C(Nc1ccc(Cl)c(C(F)(F)F)c1)Nc1ccccc1CO | 330 | – | –
10 | NCCc1ccccc1NC(=O)Nc1ccc(Cl)c(C(F)(F)F)c1 | > 1000 | – | –
11 | O=C(Nc1cccc(CCO)c1)Nc1ccc(Cl)c(C(F)(F)F)c1 | 230 | 75 | –
12 | O=C(Nc1ccc(Cl)c(C(F)(F)F)c1)Nc1cccc2c1CC(O)CC2 (racemic) | – | 650 | Fu (Plasma): 0.28%; bioavailability [3]: 74%

More lines, in order of falling IC50 [1], values ahead:

Row | IC50 [1] [nM] | AUC [2] [ng·h/mL] | SMILES | other results
13 | 140 | 12 | O=C(Nc1ccc(Cl)c(C(F)(F)F)c1)Nc1cccc2ccc(NCc3ccccc3)cc12 | –
14 | 130 | – | O=C(Nc1ccc(Cl)c(C(F)(F)F)c1)Nc1ccc2ccc(O)cc2c1 | –
15 | 93 | – | CC1CCc2cccc(NC(=O)Nc3ccc(Cl)c(C(F)(F)F)c3)c2C1 (racemic) | –
16 | 87 | – | O=C(Nc1ccc(Cl)c(C(F)(F)F)c1)Nc1cccc2c1CC(CO)CC2 (racemic) | –
17 | 84 | – | O=C(Nc1ccc(Cl)c(C(F)(F)F)c1)Nc1cccc2ccc(C(=O)O)cc12 | –
18 | 67 | 176 | O=C(Nc1ccc(Cl)c(C(F)(F)F)c1)Nc1cccc2cc[nH]c12 | –
19 | 58 | – | Cc1nc2cccc(NC(=O)Nc3ccc(Cl)c(C(F)(F)F)c3)c2[nH]1 | –
20 | 56 | 374 | O=C(Nc1ccc(Cl)c(C(F)(F)F)c1)Nc1ccccc1CCO | –
21 | 45 | – | O=C(Nc1ccc(Cl)c(C(F)(F)F)c1)Nc1cccc2c(O)cccc12 | –
22 | 34 | 217 | Nc1ccc2cccc(NC(=O)Nc3ccc(Cl)c(C(F)(F)F)c3)c2c1 | –
23 | 33 | 530 | O=C(Nc1ccc(Cl)c(C(F)(F)F)c1)Nc1cccc2[nH]ccc12 | –
24 | 32 | – | O=C(Nc1ccc(Cl)c(C(F)(F)F)c1)Nc1cccc2nc(C(F)(F)F)[nH]c12 | –
25 | 30 | 125 | CNc1ccc2cccc(NC(=O)Nc3ccc(Cl)c(C(F)(F)F)c3)c2c1 | –
26 | 18 | – | O=C(Nc1ccc(Cl)c(C(F)(F)F)c1)Nc1cccc2cc(O)ccc12 | –
27 | 16 | – | Cc1cccc(NC(=O)Nc2ccc(Cl)c(C(F)(F)F)c2)c1CCO | –
28 | 9.1 | – | O=C(Nc1ccc(Cl)c(C(F)(F)F)c1)Nc1cccc2ccc(O)c(F)c12 | –
